In the supplement of paper PMC12463676, “Small-molecule dissolution of stress granules by redox modulation benefits ALS models” (Nature Chemical Biology, 2025):

Compound: NC(=O)CCCCC1CCSS1 [lipoamide]
Assay: thermal stability z-score vs DMSO; higher = more thermally stabilized by treatment
Conditions: HeLa; lipoamide concentration 100 µM; arsenate co-treatment: 1 mM arsenate 1 h
Description: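 Cellular thermal proteome profiling in HeLa cells. Cells were treated with 100 µM lipoamide for 1 h, with or without 1 mM arsenate for a further 1 h, then heated to ten temperatures (37-66.3 °C), and soluble protein was quantified by TMT mass spectrometry relative to 0.1% DMSO controls. The thermal stability score (sum of log2 fold changes minus the abundance score) was transformed to a z-score; mean of n = 3 experiments.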
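Further: each temperature applied for 3 min, abundance score taken as mean log2 fold change at the two lowest temperatures, z-score obtained by mean subtraction and division by SD.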

Sequence of UniProt Q16576 (Q16576 whole entry): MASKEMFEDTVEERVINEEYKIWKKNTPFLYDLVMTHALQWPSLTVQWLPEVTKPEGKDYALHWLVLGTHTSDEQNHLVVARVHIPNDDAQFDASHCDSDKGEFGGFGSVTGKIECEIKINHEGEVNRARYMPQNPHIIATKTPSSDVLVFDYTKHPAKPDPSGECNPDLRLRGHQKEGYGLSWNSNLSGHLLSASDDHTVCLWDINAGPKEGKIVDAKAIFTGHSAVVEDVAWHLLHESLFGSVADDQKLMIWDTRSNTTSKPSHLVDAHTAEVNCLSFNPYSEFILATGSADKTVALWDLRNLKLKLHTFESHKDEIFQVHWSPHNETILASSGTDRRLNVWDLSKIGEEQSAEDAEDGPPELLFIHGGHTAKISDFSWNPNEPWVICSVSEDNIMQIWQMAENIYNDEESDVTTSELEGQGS
Sequence of UniProt P32004 (P32004 whole entry): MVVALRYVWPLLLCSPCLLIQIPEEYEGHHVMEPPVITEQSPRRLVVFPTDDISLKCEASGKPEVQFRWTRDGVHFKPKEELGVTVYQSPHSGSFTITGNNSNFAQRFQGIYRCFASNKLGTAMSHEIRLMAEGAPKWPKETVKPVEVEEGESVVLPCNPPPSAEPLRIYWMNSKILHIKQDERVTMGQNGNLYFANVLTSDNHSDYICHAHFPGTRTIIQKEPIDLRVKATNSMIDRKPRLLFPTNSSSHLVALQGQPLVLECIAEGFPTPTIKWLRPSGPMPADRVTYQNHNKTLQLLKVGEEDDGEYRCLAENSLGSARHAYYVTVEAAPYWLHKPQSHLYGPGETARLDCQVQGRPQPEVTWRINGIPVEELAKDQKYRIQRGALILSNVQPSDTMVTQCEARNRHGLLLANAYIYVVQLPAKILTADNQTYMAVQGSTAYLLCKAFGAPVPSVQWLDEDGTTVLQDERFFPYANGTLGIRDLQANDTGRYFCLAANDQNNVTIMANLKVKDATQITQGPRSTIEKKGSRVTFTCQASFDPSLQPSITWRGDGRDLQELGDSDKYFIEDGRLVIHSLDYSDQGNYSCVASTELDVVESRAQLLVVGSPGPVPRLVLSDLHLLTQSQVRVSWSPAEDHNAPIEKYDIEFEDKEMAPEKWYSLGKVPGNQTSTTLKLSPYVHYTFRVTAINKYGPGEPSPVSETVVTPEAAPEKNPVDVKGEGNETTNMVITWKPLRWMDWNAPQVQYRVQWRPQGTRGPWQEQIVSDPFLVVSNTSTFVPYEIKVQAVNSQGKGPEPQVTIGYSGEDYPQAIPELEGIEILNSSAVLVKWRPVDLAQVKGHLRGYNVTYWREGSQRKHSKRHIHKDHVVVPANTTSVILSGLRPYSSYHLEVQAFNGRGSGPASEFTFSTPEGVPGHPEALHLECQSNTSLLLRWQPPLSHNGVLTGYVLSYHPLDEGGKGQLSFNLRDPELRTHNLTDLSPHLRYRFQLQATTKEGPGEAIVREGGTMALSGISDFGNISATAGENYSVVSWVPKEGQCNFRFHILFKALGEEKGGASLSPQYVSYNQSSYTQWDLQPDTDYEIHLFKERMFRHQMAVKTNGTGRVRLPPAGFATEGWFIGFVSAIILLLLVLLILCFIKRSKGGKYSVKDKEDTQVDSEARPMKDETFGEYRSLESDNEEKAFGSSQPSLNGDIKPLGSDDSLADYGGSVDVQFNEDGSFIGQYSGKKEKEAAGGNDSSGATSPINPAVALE
Sequence of UniProt Q6YHU6 (Q6YHU6 whole entry): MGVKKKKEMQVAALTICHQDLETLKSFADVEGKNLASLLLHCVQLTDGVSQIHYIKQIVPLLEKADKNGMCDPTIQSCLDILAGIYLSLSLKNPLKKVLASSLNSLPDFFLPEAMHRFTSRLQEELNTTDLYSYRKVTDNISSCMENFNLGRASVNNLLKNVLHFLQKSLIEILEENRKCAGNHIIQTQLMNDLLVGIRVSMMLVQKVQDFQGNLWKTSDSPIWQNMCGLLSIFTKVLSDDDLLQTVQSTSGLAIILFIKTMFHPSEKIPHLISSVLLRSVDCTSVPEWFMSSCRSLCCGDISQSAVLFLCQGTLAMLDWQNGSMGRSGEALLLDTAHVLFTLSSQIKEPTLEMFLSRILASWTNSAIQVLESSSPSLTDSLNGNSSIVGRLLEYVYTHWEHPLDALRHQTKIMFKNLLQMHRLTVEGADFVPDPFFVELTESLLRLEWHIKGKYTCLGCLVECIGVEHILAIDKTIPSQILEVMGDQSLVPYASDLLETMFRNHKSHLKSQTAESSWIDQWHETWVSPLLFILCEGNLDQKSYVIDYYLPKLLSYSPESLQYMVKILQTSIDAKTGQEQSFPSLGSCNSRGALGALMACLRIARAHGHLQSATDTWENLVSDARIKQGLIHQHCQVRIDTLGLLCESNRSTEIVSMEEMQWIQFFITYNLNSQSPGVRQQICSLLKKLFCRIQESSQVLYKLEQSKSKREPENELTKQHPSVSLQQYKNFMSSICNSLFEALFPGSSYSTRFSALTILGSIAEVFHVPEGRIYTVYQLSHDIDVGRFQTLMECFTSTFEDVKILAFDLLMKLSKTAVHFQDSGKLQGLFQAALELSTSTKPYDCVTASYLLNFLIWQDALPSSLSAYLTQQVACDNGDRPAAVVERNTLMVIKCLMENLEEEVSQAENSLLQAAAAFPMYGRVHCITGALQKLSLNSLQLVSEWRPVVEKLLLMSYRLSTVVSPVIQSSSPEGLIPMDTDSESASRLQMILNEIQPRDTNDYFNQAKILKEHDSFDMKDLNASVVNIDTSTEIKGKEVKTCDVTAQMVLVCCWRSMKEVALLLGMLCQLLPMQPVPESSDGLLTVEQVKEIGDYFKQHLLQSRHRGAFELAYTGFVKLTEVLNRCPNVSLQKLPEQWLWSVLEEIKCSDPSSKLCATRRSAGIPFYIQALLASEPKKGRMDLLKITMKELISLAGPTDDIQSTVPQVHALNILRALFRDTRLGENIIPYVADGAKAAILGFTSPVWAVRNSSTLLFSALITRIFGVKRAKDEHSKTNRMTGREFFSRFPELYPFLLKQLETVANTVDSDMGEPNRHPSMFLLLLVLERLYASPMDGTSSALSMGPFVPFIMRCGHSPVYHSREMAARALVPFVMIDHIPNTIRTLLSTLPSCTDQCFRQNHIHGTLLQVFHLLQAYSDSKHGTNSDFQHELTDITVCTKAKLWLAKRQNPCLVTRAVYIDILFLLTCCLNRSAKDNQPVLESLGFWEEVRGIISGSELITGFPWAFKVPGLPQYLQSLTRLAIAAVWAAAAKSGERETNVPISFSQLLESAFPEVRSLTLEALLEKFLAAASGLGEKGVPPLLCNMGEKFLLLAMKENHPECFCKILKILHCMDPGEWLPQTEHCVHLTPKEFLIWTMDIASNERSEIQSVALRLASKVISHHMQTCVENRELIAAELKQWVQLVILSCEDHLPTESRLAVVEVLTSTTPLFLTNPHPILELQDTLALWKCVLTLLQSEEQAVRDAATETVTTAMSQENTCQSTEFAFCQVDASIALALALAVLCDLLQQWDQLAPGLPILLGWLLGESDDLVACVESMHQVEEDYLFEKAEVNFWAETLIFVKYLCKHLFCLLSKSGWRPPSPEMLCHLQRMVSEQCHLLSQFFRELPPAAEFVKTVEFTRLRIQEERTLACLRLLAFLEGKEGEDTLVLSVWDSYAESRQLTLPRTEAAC
Sequence of UniProt Q96LA8 (Q96LA8 whole entry, looked up): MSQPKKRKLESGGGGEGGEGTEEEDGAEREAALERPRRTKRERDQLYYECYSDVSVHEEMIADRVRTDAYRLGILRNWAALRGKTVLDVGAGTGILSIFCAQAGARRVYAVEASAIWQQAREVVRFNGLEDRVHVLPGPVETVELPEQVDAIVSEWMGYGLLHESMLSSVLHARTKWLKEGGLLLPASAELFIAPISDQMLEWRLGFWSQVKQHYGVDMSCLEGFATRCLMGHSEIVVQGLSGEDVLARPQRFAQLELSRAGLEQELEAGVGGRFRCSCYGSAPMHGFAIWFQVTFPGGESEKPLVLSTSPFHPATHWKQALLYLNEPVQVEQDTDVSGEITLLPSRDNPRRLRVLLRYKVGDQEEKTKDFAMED
Sequence of UniProt Q5U5X0 (Q5U5X0 whole entry): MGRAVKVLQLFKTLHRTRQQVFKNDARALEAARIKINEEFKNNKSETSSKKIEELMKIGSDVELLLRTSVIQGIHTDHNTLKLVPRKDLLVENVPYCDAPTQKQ
Sequence of UniProt Q06124 (Q06124 whole entry): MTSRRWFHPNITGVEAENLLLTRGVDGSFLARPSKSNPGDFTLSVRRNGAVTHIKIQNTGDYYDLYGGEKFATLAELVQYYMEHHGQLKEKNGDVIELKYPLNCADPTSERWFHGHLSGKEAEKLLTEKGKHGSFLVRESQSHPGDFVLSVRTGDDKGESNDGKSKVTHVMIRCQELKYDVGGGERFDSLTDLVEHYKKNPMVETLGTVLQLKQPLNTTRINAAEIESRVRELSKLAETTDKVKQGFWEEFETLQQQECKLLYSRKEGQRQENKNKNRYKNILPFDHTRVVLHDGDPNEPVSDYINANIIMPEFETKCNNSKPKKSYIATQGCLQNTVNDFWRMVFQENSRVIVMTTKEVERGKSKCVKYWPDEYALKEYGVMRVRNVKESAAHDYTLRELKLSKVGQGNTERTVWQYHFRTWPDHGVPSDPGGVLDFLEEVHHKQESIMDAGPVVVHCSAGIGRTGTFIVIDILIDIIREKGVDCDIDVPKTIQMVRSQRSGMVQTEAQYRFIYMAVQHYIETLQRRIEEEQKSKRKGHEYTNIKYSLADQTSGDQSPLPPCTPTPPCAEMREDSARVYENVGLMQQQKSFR
Sequence of UniProt P23284 (P23284 whole entry): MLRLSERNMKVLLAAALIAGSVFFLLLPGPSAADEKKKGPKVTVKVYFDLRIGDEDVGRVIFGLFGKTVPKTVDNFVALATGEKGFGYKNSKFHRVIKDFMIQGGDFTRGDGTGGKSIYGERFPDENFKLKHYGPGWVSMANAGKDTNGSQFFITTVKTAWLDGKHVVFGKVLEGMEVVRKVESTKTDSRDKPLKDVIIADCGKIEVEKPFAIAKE
Sequence of UniProt O95777 (O95777 whole entry): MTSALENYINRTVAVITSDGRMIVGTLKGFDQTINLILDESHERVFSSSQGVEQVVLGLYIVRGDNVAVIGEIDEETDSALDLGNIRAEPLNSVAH

Target	thermal stability z-score
KLHL26 (UniProt Q53HC5)	-0.138
CLPTM1L (UniProt Q96KA5)	-2.13
C18ORF8 (UniProt Q96DM3)	0.827
EPB41L2 (UniProt O43491)	-0.283
OLR1 (UniProt P78380)	-0.828
TRIM26 (UniProt Q12899)	-0.368
MFN2 (UniProt O95140)	-0.0814
MGME1 (UniProt Q9BQP7)	0.201
GOLPH3 (UniProt Q9H4A6)	-0.65
MAGEA1 (UniProt P43355)	0.195
PRSS56 (UniProt P0CW18)	-3.63
USP9X (UniProt Q93008)	-0.133
SETD7 (UniProt Q8WTS6)	-0.766
CDR2L (UniProt Q86X02)	0.891
DDR2 (UniProt Q16832)	-0.251
PTPN11 (UniProt Q06124)	0.431
DDHD2 (UniProt O94830)	0.3
ADGRG2 (UniProt Q8IZP9)	-0.0216
RBBP7 (UniProt Q16576)	0.794
GRAMD1A (UniProt Q96CP6)	-1.5
TOR1B (UniProt O14657)	-2.23
THADA (UniProt Q6YHU6)	-0.42
NAGPA (UniProt Q9UK23)	-0.847
PITRM1 (UniProt Q5JRX3)	0.579

Target	thermal stability z-score
BCAS2 (UniProt O75934)	0.913
FSCN1 (UniProt Q16658)	0.0281
NDC1 (UniProt Q9BTX1)	0.0748
COQ6 (UniProt Q9Y2Z9)	1.2
L1CAM (UniProt P32004)	0.0694
CISD2 (UniProt Q8N5K1)	0.556
TSC22D1 (UniProt Q15714)	0.404
FBL (UniProt P22087)	0.277
GATAD2B (UniProt Q8WXI9)	0.511
ADK (UniProt P55263)	-0.131
NR2C2AP (UniProt Q86WQ0)	-0.149
METTL2A (UniProt Q96IZ6)	0.394
USP11 (UniProt P51784)	-0.0801
ZNF148 (UniProt Q9UQR1)	0.37
HAUS5 (UniProt O94927)	0.0805
XPO7 (UniProt Q9UIA9)	-0.0212
FNTA (UniProt P49354)	-0.0233
ASAP2 (UniProt O43150)	-0.641
SPECC1L (UniProt Q69YQ0)	1.12
MAGOH|MAGOHB	0.0953
INPP5F (UniProt Q9Y2H2)	-0.128
LSM8 (UniProt O95777)	1.17
MRPL48 (UniProt Q96GC5)	-0.0867
RPAP2 (UniProt Q8IXW5)	-0.0831

Target	thermal stability z-score
COX5B (UniProt P10606)	1.26
GCDH (UniProt Q92947)	0.711
PPIB (UniProt P23284)	-3.74
MED15 (UniProt Q96RN5)	-0.382
CISD3 (UniProt P0C7P0)	1.09
LYRM7 (UniProt Q5U5X0)	0.507
PRMT6 (UniProt Q96LA8)	0.257
LYPLA2 (UniProt O95372)	0.141
CHEK2 (UniProt O96017)	-0.0379
TKFC (UniProt Q3LXA3)	0.239
NUP210 (UniProt Q8TEM1)	-0.954
ARHGEF18 (UniProt Q6ZSZ5)	-0.0633
TAF15 (UniProt Q92804)	2.08
GTF2F2 (UniProt P13984)	0.00925
SH3GL2 (UniProt Q99962)	0.272
JMJD6 (UniProt Q6NYC1)	-0.363
GALNT6 (UniProt Q8NCL4)	-0.515
CAMKK1 (UniProt Q8N5S9)	0.776
LNPEP (UniProt Q9UIQ6)	0.328
TMEM115 (UniProt Q12893)	0.0848
THUMPD1 (UniProt Q9NXG2)	0.166
RAP1GAP2 (UniProt Q684P5)	1.12
PNPLA8 (UniProt Q9NP80)	0.00209

Same assay, conditions: HeLa; lipoamide concentration 100 µM; arsenate co-treatment: none

Target	thermal stability z-score
KLHL26 (UniProt Q53HC5)	-0.165
CLPTM1L (UniProt Q96KA5)	-1.51
C18ORF8 (UniProt Q96DM3)	0.41
EPB41L2 (UniProt O43491)	-0.0411
OLR1 (UniProt P78380)	-0.797
TRIM26 (UniProt Q12899)	-0.0684
MFN2 (UniProt O95140)	-0.338
MGME1 (UniProt Q9BQP7)	0.117
GOLPH3 (UniProt Q9H4A6)	-0.881
MAGEA1 (UniProt P43355)	0.0019
PRSS56 (UniProt P0CW18)	-2.95
USP9X (UniProt Q93008)	-0.258
SETD7 (UniProt Q8WTS6)	0.0448
CDR2L (UniProt Q86X02)	0.86
DDR2 (UniProt Q16832)	-0.189
PTPN11 (UniProt Q06124)	0.267
DDHD2 (UniProt O94830)	-0.141
ADGRG2 (UniProt Q8IZP9)	0.386
RBBP7 (UniProt Q16576)	0.539
GRAMD1A (UniProt Q96CP6)	-1.05
TOR1B (UniProt O14657)	-2.79
THADA (UniProt Q6YHU6)	-0.349
NAGPA (UniProt Q9UK23)	-0.928
PITRM1 (UniProt Q5JRX3)	0.327

Target	thermal stability z-score
BCAS2 (UniProt O75934)	0.747
FSCN1 (UniProt Q16658)	-0.236
NDC1 (UniProt Q9BTX1)	0.0634
COQ6 (UniProt Q9Y2Z9)	-0.131
L1CAM (UniProt P32004)	-0.375
CISD2 (UniProt Q8N5K1)	0.316
TSC22D1 (UniProt Q15714)	0.657
FBL (UniProt P22087)	-0.112
GATAD2B (UniProt Q8WXI9)	0.315
ADK (UniProt P55263)	-0.279
NR2C2AP (UniProt Q86WQ0)	-0.255
METTL2A (UniProt Q96IZ6)	0.528
USP11 (UniProt P51784)	-0.162
ZNF148 (UniProt Q9UQR1)	0.389
HAUS5 (UniProt O94927)	0.111
XPO7 (UniProt Q9UIA9)	-0.0682
FNTA (UniProt P49354)	-0.0253
ASAP2 (UniProt O43150)	-0.527
SPECC1L (UniProt Q69YQ0)	1.43
MAGOH|MAGOHB	0.171
INPP5F (UniProt Q9Y2H2)	-0.261
LSM8 (UniProt O95777)	0.47
MRPL48 (UniProt Q96GC5)	0.198
RPAP2 (UniProt Q8IXW5)	-0.0884

Target	thermal stability z-score
COX5B (UniProt P10606)	1.21
GCDH (UniProt Q92947)	0.198
PPIB (UniProt P23284)	-2.72
MED15 (UniProt Q96RN5)	-0.574
CISD3 (UniProt P0C7P0)	1.49
LYRM7 (UniProt Q5U5X0)	0.358
PRMT6 (UniProt Q96LA8)	0.412
LYPLA2 (UniProt O95372)	0.194
CHEK2 (UniProt O96017)	-0.222
TKFC (UniProt Q3LXA3)	0.23
NUP210 (UniProt Q8TEM1)	-1.03
ARHGEF18 (UniProt Q6ZSZ5)	-0.00829
TAF15 (UniProt Q92804)	1.21
GTF2F2 (UniProt P13984)	-0.239
SH3GL2 (UniProt Q99962)	0.622
JMJD6 (UniProt Q6NYC1)	0.15
GALNT6 (UniProt Q8NCL4)	-0.683
CAMKK1 (UniProt Q8N5S9)	1.45
LNPEP (UniProt Q9UIQ6)	0.227
TMEM115 (UniProt Q12893)	0.637
THUMPD1 (UniProt Q9NXG2)	0.155
RAP1GAP2 (UniProt Q684P5)	0.923
PNPLA8 (UniProt Q9NP80)	0.148

Compound: O=[As]([O-])(O)O.[K+] [potassium arsenate]
Assay: as above
Conditions: HeLa; arsenate concentration 1 mM
Description: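 Cellular thermal proteome profiling in HeLa cells treated with 1 mM arsenate for 1 h (DMSO pretreatment), heated to ten temperatures (37-66.3 °C). Soluble protein was quantified by TMT mass spectrometry relative to DMSO controls; the thermal stability score was transformed to a z-score; mean of n = 3 experiments.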

Target	thermal stability z-score
KLHL26 (UniProt Q53HC5)	-0.108
CLPTM1L (UniProt Q96KA5)	0.279
C18ORF8 (UniProt Q96DM3)	-0.638
EPB41L2 (UniProt O43491)	0.128
OLR1 (UniProt P78380)	0.938
TRIM26 (UniProt Q12899)	0.295
MFN2 (UniProt O95140)	0.252
MGME1 (UniProt Q9BQP7)	-0.00686
GOLPH3 (UniProt Q9H4A6)	-0.641
MAGEA1 (UniProt P43355)	1.03
PRSS56 (UniProt P0CW18)	0.756
USP9X (UniProt Q93008)	0.115
SETD7 (UniProt Q8WTS6)	-0.402
CDR2L (UniProt Q86X02)	-0.419
DDR2 (UniProt Q16832)	-0.163
PTPN11 (UniProt Q06124)	-0.559
DDHD2 (UniProt O94830)	-0.0424
ADGRG2 (UniProt Q8IZP9)	-0.592
RBBP7 (UniProt Q16576)	-0.595
GRAMD1A (UniProt Q96CP6)	0.0677
TOR1B (UniProt O14657)	1.11
THADA (UniProt Q6YHU6)	-0.361
NAGPA (UniProt Q9UK23)	-1.05
PITRM1 (UniProt Q5JRX3)	2.58

Target	thermal stability z-score
BCAS2 (UniProt O75934)	0.558
FSCN1 (UniProt Q16658)	-1.09
NDC1 (UniProt Q9BTX1)	0.177
COQ6 (UniProt Q9Y2Z9)	-2.7
L1CAM (UniProt P32004)	-0.0837
CISD2 (UniProt Q8N5K1)	-0.581
TSC22D1 (UniProt Q15714)	0.629
FBL (UniProt P22087)	0.723
GATAD2B (UniProt Q8WXI9)	-0.539
ADK (UniProt P55263)	-1.35
NR2C2AP (UniProt Q86WQ0)	0.17
METTL2A (UniProt Q96IZ6)	-0.0971
USP11 (UniProt P51784)	0.143
ZNF148 (UniProt Q9UQR1)	0.415
HAUS5 (UniProt O94927)	-0.0216
XPO7 (UniProt Q9UIA9)	0.621
FNTA (UniProt P49354)	0.355
ASAP2 (UniProt O43150)	-0.394
SPECC1L (UniProt Q69YQ0)	1.47
MAGOH|MAGOHB	0.0412
INPP5F (UniProt Q9Y2H2)	0.13
LSM8 (UniProt O95777)	-0.214
MRPL48 (UniProt Q96GC5)	0.101
RPAP2 (UniProt Q8IXW5)	-0.0605

Target	thermal stability z-score
COX5B (UniProt P10606)	-0.926
GCDH (UniProt Q92947)	-0.202
PPIB (UniProt P23284)	0.559
MED15 (UniProt Q96RN5)	-2.01
CISD3 (UniProt P0C7P0)	0.0591
LYRM7 (UniProt Q5U5X0)	-0.0732
PRMT6 (UniProt Q96LA8)	0.483
LYPLA2 (UniProt O95372)	0.209
CHEK2 (UniProt O96017)	-0.161
TKFC (UniProt Q3LXA3)	-0.753
NUP210 (UniProt Q8TEM1)	0.685
ARHGEF18 (UniProt Q6ZSZ5)	-0.0508
TAF15 (UniProt Q92804)	1.34
GTF2F2 (UniProt P13984)	-0.198
SH3GL2 (UniProt Q99962)	0.00309
JMJD6 (UniProt Q6NYC1)	0.606
GALNT6 (UniProt Q8NCL4)	-0.396
CAMKK1 (UniProt Q8N5S9)	4.72
LNPEP (UniProt Q9UIQ6)	0.249
TMEM115 (UniProt Q12893)	-0.307
THUMPD1 (UniProt Q9NXG2)	3.08
RAP1GAP2 (UniProt Q684P5)	0.124
PNPLA8 (UniProt Q9NP80)	-0.332
